In the Kinase Knowledgebase extract (Sharma et al. 2016):

Key:
[1] = molecular target: CDK2 (UniProt P24941); assay: Enzyme Assay
[2] = molecular target: CDK2 (UniProt P24941); assay: Enzyme Assay; remark: listed apart in the source

Row | SMILES | IC50 [1] [µM] | IC50 [2] [µM]
1 | COc1cccc(F)c1C(=O)Nc1c[nH]nc1C(=O)NC1CCNCC1 | < 20 | 
2 | O=C(NC1CCC(N2CCSCC2)CC1)c1n[nH]cc1NC(=O)c1c(F)cccc1F (stereo not given) | < 20 | 
3 | CN1CCC(NC(=O)c2n[nH]cc2NC(=O)c2ccccc2OC(C)(C)C)CC1 | < 20 | 
4 | COc1cccc(F)c1C(=O)Nc1c[nH]nc1C(=O)N[C@H]1CC[C@H](O)CC1 | < 20 | 
5 | O=C(NC1CCNCC1)c1n[nH]cc1NC(=O)c1c(Cl)cncc1Cl | < 20 | 
6 | CC(C)(C)CNC(=O)Nc1c[nH]nc1C(=O)N[C@H]1CC[C@H](O)CC1 | < 20 | 
7 | O=C(NC1CCN(CC2CC2)CC1)c1n[nH]cc1NC(=O)c1c(F)cccc1F | < 20 | 
8 | O=C(NCC1CCNCC1)c1n[nH]cc1NC(=O)c1c(F)cccc1F | < 20 | 
9 | O=C(Nc1c[nH]nc1C(=O)NCC1CC1)c1ccc(N2CCOCC2)cc1Cl | < 20 | 
10 | COc1ccccc1C(=O)Nc1c[nH]nc1C(=O)NC1CCNCC1 | < 20 | 
11 | CC(C)(C)C1CCC(NC(=O)c2n[nH]cc2NC(=O)c2ccc(F)cc2)CC1 (stereo not given) | < 750 | 
12 | O=C(N[C@H]1CC[C@H](N2CCOCC2)CC1)c1n[nH]cc1NC(=O)c1c(F)cccc1F | < 20 | 
13 | CN1CCC(NC(=O)c2n[nH]cc2NC(=O)c2cccc3c2OCCO3)CC1 | < 20 | 
14 | CC(C)(C)OC(=O)N1CCC(NC(=O)c2n[nH]cc2NC(=O)c2ccccc2)CC1 | < 20 | 
15 | O=C(Nc1c[nH]nc1C(=O)NC1CCNCC1)c1ccccc1OC(F)F | < 20 | 
16 | Cc1ccc(C(=O)Nc2c[nH]nc2C(=O)NC2CCN(C)CC2)cc1 | < 20 | 
17 | COc1cccc(F)c1C(=O)Nc1c[nH]nc1C(=O)NC1CCN(C)CC1 | < 20 | 
18 | O=C(NC1CCN(c2cccc(Cl)n2)CC1)c1n[nH]cc1NC(=O)c1c(F)cccc1F | < 20 | 
19 | CN1CCN([C@H]2CC[C@@H](NC(=O)c3n[nH]cc3NC(=O)c3c(F)cccc3F)CC2)CC1 | < 20 | 
20 | CC(C)(C)C1CCC(NC(=O)c2n[nH]cc2NC(=O)c2ccc(CN3CCOCC3)o2)CC1 (stereo not given) | < 20 | 
21 | CS(=O)(=O)N1CCC(NC(=O)c2n[nH]cc2NC(=O)c2c(F)cccc2F)CC1 | < 20 | 
22 | O=C(Nc1c[nH]nc1C(=O)NC1CCNCC1)c1cc(-c2ccccc2)cs1 | < 20 | 
23 | CN1CCC(N2CCC(NC(=O)c3n[nH]cc3NC(=O)c3c(F)cccc3F)CC2)CC1 | < 20 | 
24 | CC(C)(C)C1CCC(NC(=O)c2n[nH]cc2NC(=O)c2cc(F)cc(F)c2)CC1 (stereo not given) | < 750 | 
25 | CN1CCC(NC(=O)c2n[nH]cc2NC(=O)c2cccc(Cl)c2Cl)CC1 | < 20 | 
26 | CC(C)(C)C1CCC(NC(=O)c2n[nH]cc2NC(=O)c2ccc(CN3CCCC3)o2)CC1 (stereo not given) | < 20 | 
27 | CN1CCC(NC(=O)c2n[nH]cc2NC(=O)c2c(F)cccc2Cl)CC1 | < 20 | 
28 | CC(C)N1CCC(NC(=O)c2n[nH]cc2NC(=O)c2c(F)cccc2F)CC1 | < 20 | 

Row | SMILES | IC50 [1] [µM] | IC50 [2] [µM]
29 | O=C(N[C@H]1CC[C@H](NC2CCOCC2)CC1)c1n[nH]cc1NC(=O)c1c(F)cccc1F | < 20 | 
30 | O=C(N[C@H]1CCCNC1)c1n[nH]cc1NC(=O)c1c(F)cccc1F | < 20 | 
31 | O=C(Nc1ccccc1)Nc1c[nH]nc1C(=O)N[C@H]1CC[C@H](O)CC1 | < 20 | 
32 | O=C(N[C@H]1CC[C@@H](N2CCOCC2)CC1)c1n[nH]cc1NC(=O)c1c(F)cccc1F | < 20 | 
33 | O=C(NC1CCN(CC(F)(F)F)CC1)c1n[nH]cc1NC(=O)c1c(F)cccc1F | < 20 | 
34 | O=C(Nc1c[nH]nc1C(=O)NC1CCNCC1)c1ccccc1N1CCOCC1 | < 20 | 
35 | O=C(NC1CCC(CO)CC1)c1n[nH]cc1NC(=O)c1c(F)cccc1F (stereo not given) | < 20 | 
36 | CN(C)[C@H]1CC[C@H](NC(=O)c2n[nH]cc2NC(=O)c2c(F)cccc2F)CC1 | < 20 | 
37 | O=C(NCc1cccnc1)c1n[nH]cc1NC(=O)c1c(F)cccc1F | < 20 | 
38 | CN1CCC(NC(=O)Nc2c[nH]nc2C(=O)N[C@H]2CC[C@H](O)CC2)CC1 | < 20 | 
39 | CC(C)(C)C1CCC(NC(=O)c2n[nH]cc2NC(=O)c2ccccc2)CC1 (stereo not given) | < 750 | 
40 | O=C(Nc1c[nH]nc1C(=O)NCC1CC1)c1cccc2c1OCCO2 | < 20 | 
41 | O=C(N[C@H]1CC[C@H](O)CC1)c1n[nH]cc1NC(=O)c1c(F)cccc1Cl | < 20 | 
42 | O=C(Nc1c[nH]nc1C(=O)N[C@H]1CC[C@H](O)CC1)Nc1c(F)cccc1F | < 20 | 
43 | O=C(Nc1c[nH]nc1C(=O)N[C@H]1CC[C@H](O)CC1)c1cccc2c1OCCO2 | < 20 | 
44 | CN1CCN(c2cc(F)cc(C(=O)Nc3c[nH]nc3C(=O)NC3CCCCC3)c2)CC1 | < 20 | 
45 | COc1ccccc1CNC(=O)c1n[nH]cc1NC(=O)c1c(F)cccc1F | < 20 | < 20
46 | COCCN1CCC(NC(=O)c2n[nH]cc2NC(=O)c2c(F)cccc2F)CC1 | < 20 | 
47 | Cc1onc(-c2ccccc2)c1C(=O)Nc1c[nH]nc1C(=O)NC1CCNCC1 | < 750 | 
48 | O=C(N[C@H]1CC[C@@H](NC2CCOCC2)CC1)c1n[nH]cc1NC(=O)c1c(F)cccc1F | < 20 | 
49 | O=C(NCC1CCCO1)c1n[nH]cc1NC(=O)c1c(F)cccc1F (stereo not given) | < 20 | < 20
50 | O=C(Nc1c[nH]nc1C(=O)NC1CCNCC1)c1ccc(Cl)cc1 | < 20 | 
51 | CN1CCC(NC(=O)c2n[nH]cc2NC(=O)c2c(Cl)cccc2Cl)CC1 | < 20 | 
52 | O=C(Nc1c[nH]nc1C(=O)NC1CCNCC1)c1ccccc1Br | < 20 | 
53 | CC(C)(C)OC(=O)N1CCC(NC(=O)c2n[nH]cc2NC(=O)c2c(F)cc(F)cc2F)CC1 | < 20 | 
54 | O=C(Nc1c[nH]nc1C(=O)NC1CCNCC1)c1ccc(F)cc1 | < 750 | 
55 | Cc1nn(C)c(C)c1CNC(=O)c1n[nH]cc1NC(=O)c1c(F)cccc1F | < 20 | < 20

Results, then the compound that gave them:

Row | IC50 [1] [µM] | IC50 [2] [µM] | SMILES
56 | < 20 |  | CO[C@H]1CC[C@H](NC(=O)c2n[nH]cc2NC(=O)c2c(Cl)cccc2Cl)CC1
57 | < 20 |  | CO[C@H]1CC[C@H](NC(=O)c2n[nH]cc2NC(=O)c2c(F)cccc2F)CC1
58 | < 20 |  | O=C(N[C@H]1CC[C@H](N2CCS(=O)(=O)CC2)CC1)c1n[nH]cc1NC(=O)c1c(F)cccc1F
59 | < 750 |  | O=C(N[C@H]1CC[C@H](O)CC1)c1n[nH]cc1NC(=O)N1CCOCC1
60 | < 20 |  | CC(NC(=O)c1n[nH]cc1NC(=O)c1c(F)cccc1F)c1ccccc1 (stereo not given)
61 | < 20 | < 20 | Cc1cc(CNC(=O)c2n[nH]cc2NC(=O)c2c(F)cccc2F)no1
62 | < 20 |  | COc1cscc1C(=O)Nc1c[nH]nc1C(=O)N[C@H]1CC[C@H](O)CC1
63 | < 20 |  | CN1CCC(NC(=O)c2n[nH]cc2NC(=O)c2ccccc2Cl)CC1
64 | < 750 |  | O=C(Nc1c[nH]nc1C(=O)NC1CCNCC1)c1ccccc1
65 | < 20 |  | O=C(Nc1c[nH]nc1C(=O)NC1CCNCC1)c1cc(F)cc(F)c1
66 | < 20 |  | O=C(NC1CCNCC1)c1n[nH]cc1NC(=O)c1c(F)cccc1Cl
67 | < 20 |  | COc1ccccc1C(=O)Nc1c[nH]nc1C(=O)N[C@H]1CC[C@H](O)CC1
68 | < 20 |  | N[C@H]1CC[C@H](NC(=O)c2n[nH]cc2NC(=O)c2c(F)cccc2F)CC1
69 | < 20 |  | CN1CCC(NC(=O)c2n[nH]cc2NC(=O)c2cc(Cl)ccc2Cl)CC1
70 | < 20 |  | O=C(NC1CCN(c2ncccn2)CC1)c1n[nH]cc1NC(=O)c1c(F)cccc1F
71 | < 20 |  | CC(C)(C)OC(=O)N1CCC(NC(=O)c2n[nH]cc2NC(=O)c2ccc(F)cc2)CC1
72 | < 20 | < 20 | O=C(NCc1ccncc1)c1n[nH]cc1NC(=O)c1c(F)cccc1F
73 | < 20 |  | O=C(NC1CCN(CC2CCOC2)CC1)c1n[nH]cc1NC(=O)c1c(F)cccc1F (stereo not given)

Row | IC50 [1] [µM] | IC50 [2] [µM] | SMILES
74 | < 20 |  | CS(=O)(=O)NC[C@H]1CC[C@H](NC(=O)c2n[nH]cc2NC(=O)c2c(F)cccc2F)CC1
75 | < 20 |  | O=C(NC[C@H]1CC[C@H](NC(=O)c2n[nH]cc2NC(=O)c2c(F)cccc2F)CC1)OCc1ccccc1
76 | < 20 |  | COCCN1CCC(NC(=O)c2n[nH]cc2NC(=O)c2c(Cl)cccc2Cl)CC1
77 | < 20 |  | O=C1CC[C@H](NC(=O)c2n[nH]cc2NC(=O)c2c(F)cccc2F)CN1
78 | < 20 |  | O=C(NCc1ccco1)c1n[nH]cc1NC(=O)c1c(F)cccc1F
79 | < 20 |  | O=C(Nc1c[nH]nc1C(=O)NC1CCNCC1)c1ccccc1OC(F)(F)F
80 | < 20 |  | CCOc1ccccc1C(=O)Nc1c[nH]nc1C(=O)NC1CCNCC1
81 | < 750 |  | CC(C)(C)C1CCC(NC(=O)c2n[nH]cc2NC(=O)c2ccc(OC(F)F)cc2)CC1 (stereo not given)
82 | < 750 |  | O=C(NCc1ccccc1)Nc1c[nH]nc1C(=O)N[C@H]1CC[C@H](O)CC1
83 | < 20 |  | O=C(Nc1c[nH]nc1C(=O)NC1CCNCC1)c1ccc(OC(F)F)cc1
84 | < 20 |  | O=C(N[C@H]1CCCNC1)c1n[nH]cc1NC(=O)c1c(Cl)cccc1Cl
85 | < 20 |  | CN1CCN([C@H]2CC[C@H](NC(=O)c3n[nH]cc3NC(=O)c3c(F)cccc3F)CC2)CC1
86 | < 20 |  | O=C(NC1CCNCC1)c1n[nH]cc1NC(=O)c1c(F)cc(F)cc1F
87 | < 20 |  | O=C(Nc1c[nH]nc1C(=O)NC1CCNCC1)c1ccccc1OCc1ccccc1
88 | < 20 |  | CC1CCC(NC(=O)c2n[nH]cc2NC(=O)c2c(F)cccc2F)CC1 (stereo not given)
89 | < 20 |  | NC[C@H]1CC[C@H](NC(=O)c2n[nH]cc2NC(=O)c2c(F)cccc2F)CC1
90 | < 20 |  | COc1ccc(F)cc1C(=O)Nc1c[nH]nc1C(=O)NC1CCN(C)CC1
